# Patent publication KR20080020768A, “항균 효과를 갖는 목단피의 추출물로부터 분리된 신규구조의 6‘-오-바닐릴옥시파에오니플로린 화합물을유효성분으로 함유하는 조성물” (priority 2006, dated 2008)
# Key:
# [1] = test system: Salmonella paratyphi A JOL381; assay: Minimum inhibitory concentration (MIC) measurement; format: cell-based; settings: Salmonella enterica, 24 h, read-out: minimum inhibitory concentration (MIC)
# [2] = test system: MRSA 104 human isolate [사람 분리주]; assay: Minimum inhibitory concentration (MIC) measurement; format: cell-based, methicillin-resistant S. aureus; settings: Staphylococcus aureus, 24 h, read-out: minimum inhibitory concentration (MIC)
# [3] = test system: Shigella flexeneri JOL378; assay: Minimum inhibitory concentration (MIC) measurement; format: cell-based; settings: JOL378, 24 h, read-out: minimum inhibitory concentration (MIC)
# [4] = test system: Vibrio cholerae O1 JOL375; assay: Minimum inhibitory concentration (MIC) measurement; format: cell-based; settings: O1JOL375, 24 h, read-out: minimum inhibitory concentration (MIC)
# E. coli O157 ATCC 43890 = assay: Minimum inhibitory concentration (MIC) measurement; format: cell-based; settings: Escherichia coli, ATCC43890, 24 h, read-out: minimum inhibitory concentration (MIC)
# [5] = test system: Shigella dysenteriae ATCC 49557; assay: Minimum inhibitory concentration (MIC) measurement; format: cell-based; settings: ATCC49557, 24 h, read-out: minimum inhibitory concentration (MIC)
# [6] = test system: MRSA 6 animal (chicken) isolate [동물(닭) 분리주]; assay: Minimum inhibitory concentration (MIC) measurement; format: cell-based, methicillin-resistant S. aureus; settings: Staphylococcus aureus, 24 h, read-out: minimum inhibitory concentration (MIC)
# [7] = test system: Shigrlla dysenteriae JOL377; assay: Minimum inhibitory concentration (MIC) measurement; format: cell-based; settings: 24 h, read-out: minimum inhibitory concentration (MIC)
# E. coli O157 ATCC 35150 = assay: Minimum inhibitory concentration (MIC) measurement; format: cell-based; settings: Escherichia coli, ATCC35150, 24 h, read-out: minimum inhibitory concentration (MIC)
# [8] = test system: all 18 causative bacteria of zoonotic infectious diseases [인수 공통 감염병을 유발하는 원인균 18종 모두]; assay: Minimum inhibitory concentration (MIC) measurement, all 18 strains; format: cell-based; settings: 24 h; range over all 18 strains
# [9] = test system: Salmonella gallinarium standard strain [수과연표준균주]; assay: Minimum inhibitory concentration (MIC) measurement; format: cell-based; settings: 24 h, read-out: minimum inhibitory concentration (MIC)
# [10] = test system: Salmonella enteritidis standard strain (Sal-36) [수과연표준균주 (Sal-36)]; assay: Minimum inhibitory concentration (MIC) measurement; format: cell-based; settings: Salmonella enterica, 24 h, read-out: minimum inhibitory concentration (MIC)
# [11] = test system: Salmonella typhimurium standard strain (Sal-13) [수과연표준균주 (Sal-13)]; assay: Minimum inhibitory concentration (MIC) measurement; format: cell-based; settings: Salmonella enterica, 24 h, read-out: minimum inhibitory concentration (MIC)
# MRSA ATCC 700698 = assay: Minimum inhibitory concentration (MIC) measurement; format: cell-based, methicillin-resistant S. aureus; settings: Staphylococcus aureus, 24 h, read-out: minimum inhibitory concentration (MIC)
# [12] = test system: E. coli K88 standard strain (E-126) [수과연표준균주 (E-126)]; assay: Minimum inhibitory concentration (MIC) measurement; format: cell-based; settings: Escherichia coli, 24 h, read-out: minimum inhibitory concentration (MIC)
# Salmonella typhi JOL380 = assay: Minimum inhibitory concentration (MIC) measurement; format: cell-based; settings: Salmonella enterica, 24 h, read-out: minimum inhibitory concentration (MIC)
# [13] = test system: Vibrio cholerae O139 JOL376; assay: Minimum inhibitory concentration (MIC) measurement; format: cell-based; settings: O139JOL376, 24 h, read-out: minimum inhibitory concentration (MIC)
# [14] = test system: E. coli O157 animal isolate [동물 분리주]; assay: Minimum inhibitory concentration (MIC) measurement; format: cell-based; settings: Escherichia coli, 24 h, read-out: minimum inhibitory concentration (MIC)
# [15] = test system: E. coli K99 standard strain (E-125) [수과연표준균주 (E-125)]; assay: Minimum inhibitory concentration (MIC) measurement; format: cell-based; settings: Escherichia coli, 24 h, read-out: minimum inhibitory concentration (MIC)
SMILES,MIC [1] [µg/mL],MIC [2] [µg/mL],MIC [3] [µg/mL],MIC [4] [µg/mL],MIC (E. coli O157 ATCC 43890) [µg/mL],MIC [5] [µg/mL],MIC [6] [µg/mL],MIC [7] [µg/mL],MIC (E. coli O157 ATCC 35150) [µg/mL],MIC [8] [µg/mL],MIC [9] [µg/mL],MIC [10] [µg/mL],MIC [11] [µg/mL],MIC (MRSA ATCC 700698) [µg/mL],MIC [12] [µg/mL],MIC (Salmonella typhi JOL380) [µg/mL],MIC [13] [µg/mL],MIC [14] [µg/mL],MIC [15] [µg/mL]
"COc1cc(C(=O)OCC2OC(OC34CC5C6(O)CC3(C)OC(O6)C54COC(=O)c3ccc(O)cc3)C(O)C(O)C2O)ccc1O (centres unmarked) [6′-오-바닐릴옥시파에오니플로린, 6'-O-vanillyloxypaeoniflorin]",200,200,200,100,200,500,300,200,300,100 to 500,200,200,200,200,200,200,100,200,–
NCC1OC(OC2C(N)CC(N)C(OC3OC(CO)C(O)C(N)C3O)C2O)C(O)C(O)C1O (centres unmarked) [Kanamycin A],> 100,> 100,10,> 100,10,> 100,50,> 100,10,–,50,50,50,> 100,50,50,50,> 100,–
CC1(C)S[C@@H]2[C@H](NC(=O)Cc3ccccc3)C(=O)N2[C@H]1C(=O)O [Penicillin G],> 100,> 100,> 100,> 100,50,> 100,> 100,> 100,50,–,10,50,10,100,100,> 100,1,> 100,50
